“Also recorded” adds a separate entry of the source.
Legend:
TORK [1] = target: T1, TORK (Homo sapiens, UniProt P42345); test: Western blot for markers of TORK inhibition (pS6 and p4EBP1) in HCT-116 cells; assay type: cell-based; details: parental and DNAPK−/− HCT116 cells
TORK [2] = target: T1, TORK; test: ActivX KiNativ assay (probe binding, LC-MS); parameters: lysates were prepared from cell pellets and incubated with ADP and ATP probes; endogenous in cells; details: 0.3 μM and 1.0 μM dose, 1 h, four different cell lines
SMG1 [3] = target: T2, SMG1 (Homo sapiens, UniProt Q96Q15); test: Western blot for marker of SMG1 inhibition (pATM/ATR substrate band colocalizing with UPF1) in HCT-116 cells; assay type: cell-based; details: parental and DNAPK−/− HCT116 cells
T2 construct: endogenous in cells; host or cells: HCT-116 parental and HCT-116 DNA-PK-/- cells
Text: SDS-PAGE and Western blot: Equal amounts of protein were subjected to SDS-PAGE using 3-8% tris-acetate protein gels (Thermo Fisher Scientific #A03755BOX, for DNA-PK, SMG1 and vinculin detection) and 4-12% bis-tris protein gels (Thermo Fisher Scientific #NP0323BOX, for phospho-(Ser/Thr) ATM/ATR substrate, UPF1, GAPDH, S6, phospho-4E-BP1, and cofilin detection). Proteins were electrophoretically transferred to 0.2 μm nitrocellulose membranes (Thermo Fisher Scientific #LC2000) and blocked for 1 hour with Odyssey Blocking Buffer TBS (LI-COR #927-50000). Membranes from 3-8% tris-acetate gels were incubated overnight with antibodies against total DNA-PK (Cell Signaling #12311), phospho DNA-PK (Ser2056) (Abcam #ab124918), total SMG1 (Cell Signaling #9149) and vinculin (Sigma #V9264). Membranes from 4-12% bis-tris gels were incubated overnight with antibodies against phospho-(Ser/Thr) ATM/ATR substrate (Cell Signaling #2851), total UPF1 (Sigma #SAB 1402893), GAPDH (Santa Cruz #47724), total S6 Ribosomal Protein (Santa Cruz #74459), phosphoS6 Ribosomal Protein (Ser240/244) (Cell Signaling #5364), phospho-4E-BP1 (Thr70) (Cell Signaling #9455), and cofilin (Santa Cruz #376476). Membranes were washed with TBST and incubated with IRDye 800CW Goat anti-Rabbit IgG (LI-COR #926-32211) and IRDye 680LT Goat anti-Mouse IgG (LI-COR #926-68020) secondary antibodies for 1 hour. […]

SMG1 [4] = target: T2, SMG1; test: ActivX KiNativ assay (probe binding, LC-MS); details: 0.3 μM and 1.0 μM dose, 1 h, four different cell lines
Method: (§1) After 1 h, the medium was aspirated; cells were rinsed once with ice cold PBS, scraped off and transferred to a 15 ml conical tube. Cells were pelleted by centrifugation, the supernatant was discarded and pellets were frozen on dry ice and stored at −80° C. KiNativ assay: Briefly, lysates were prepared from cell pellets and incubated with ADP and ATP probes. After a tryptic digest, the probe labeled peptides were characterized and quantified using targeted Liquid Chromatography-Mass Spectrometry (LC-MS). Percent inhibition is defined as the reduction of probe binding in the presence of compound, indicating binding of the compound to the kinase.

DNA-PK = target: T3, DNA-PK (Homo sapiens, UniProt P78527); test: ActivX KiNativ assay (probe binding, LC-MS); details: 0.3 μM and 1.0 μM dose, 1 h, four different cell lines
T3 construct: lysates were prepared from cell pellets and incubated with ADP and ATP probes; endogenous in cells
Method: as §1

T2 sequence (Q96Q15 whole entry): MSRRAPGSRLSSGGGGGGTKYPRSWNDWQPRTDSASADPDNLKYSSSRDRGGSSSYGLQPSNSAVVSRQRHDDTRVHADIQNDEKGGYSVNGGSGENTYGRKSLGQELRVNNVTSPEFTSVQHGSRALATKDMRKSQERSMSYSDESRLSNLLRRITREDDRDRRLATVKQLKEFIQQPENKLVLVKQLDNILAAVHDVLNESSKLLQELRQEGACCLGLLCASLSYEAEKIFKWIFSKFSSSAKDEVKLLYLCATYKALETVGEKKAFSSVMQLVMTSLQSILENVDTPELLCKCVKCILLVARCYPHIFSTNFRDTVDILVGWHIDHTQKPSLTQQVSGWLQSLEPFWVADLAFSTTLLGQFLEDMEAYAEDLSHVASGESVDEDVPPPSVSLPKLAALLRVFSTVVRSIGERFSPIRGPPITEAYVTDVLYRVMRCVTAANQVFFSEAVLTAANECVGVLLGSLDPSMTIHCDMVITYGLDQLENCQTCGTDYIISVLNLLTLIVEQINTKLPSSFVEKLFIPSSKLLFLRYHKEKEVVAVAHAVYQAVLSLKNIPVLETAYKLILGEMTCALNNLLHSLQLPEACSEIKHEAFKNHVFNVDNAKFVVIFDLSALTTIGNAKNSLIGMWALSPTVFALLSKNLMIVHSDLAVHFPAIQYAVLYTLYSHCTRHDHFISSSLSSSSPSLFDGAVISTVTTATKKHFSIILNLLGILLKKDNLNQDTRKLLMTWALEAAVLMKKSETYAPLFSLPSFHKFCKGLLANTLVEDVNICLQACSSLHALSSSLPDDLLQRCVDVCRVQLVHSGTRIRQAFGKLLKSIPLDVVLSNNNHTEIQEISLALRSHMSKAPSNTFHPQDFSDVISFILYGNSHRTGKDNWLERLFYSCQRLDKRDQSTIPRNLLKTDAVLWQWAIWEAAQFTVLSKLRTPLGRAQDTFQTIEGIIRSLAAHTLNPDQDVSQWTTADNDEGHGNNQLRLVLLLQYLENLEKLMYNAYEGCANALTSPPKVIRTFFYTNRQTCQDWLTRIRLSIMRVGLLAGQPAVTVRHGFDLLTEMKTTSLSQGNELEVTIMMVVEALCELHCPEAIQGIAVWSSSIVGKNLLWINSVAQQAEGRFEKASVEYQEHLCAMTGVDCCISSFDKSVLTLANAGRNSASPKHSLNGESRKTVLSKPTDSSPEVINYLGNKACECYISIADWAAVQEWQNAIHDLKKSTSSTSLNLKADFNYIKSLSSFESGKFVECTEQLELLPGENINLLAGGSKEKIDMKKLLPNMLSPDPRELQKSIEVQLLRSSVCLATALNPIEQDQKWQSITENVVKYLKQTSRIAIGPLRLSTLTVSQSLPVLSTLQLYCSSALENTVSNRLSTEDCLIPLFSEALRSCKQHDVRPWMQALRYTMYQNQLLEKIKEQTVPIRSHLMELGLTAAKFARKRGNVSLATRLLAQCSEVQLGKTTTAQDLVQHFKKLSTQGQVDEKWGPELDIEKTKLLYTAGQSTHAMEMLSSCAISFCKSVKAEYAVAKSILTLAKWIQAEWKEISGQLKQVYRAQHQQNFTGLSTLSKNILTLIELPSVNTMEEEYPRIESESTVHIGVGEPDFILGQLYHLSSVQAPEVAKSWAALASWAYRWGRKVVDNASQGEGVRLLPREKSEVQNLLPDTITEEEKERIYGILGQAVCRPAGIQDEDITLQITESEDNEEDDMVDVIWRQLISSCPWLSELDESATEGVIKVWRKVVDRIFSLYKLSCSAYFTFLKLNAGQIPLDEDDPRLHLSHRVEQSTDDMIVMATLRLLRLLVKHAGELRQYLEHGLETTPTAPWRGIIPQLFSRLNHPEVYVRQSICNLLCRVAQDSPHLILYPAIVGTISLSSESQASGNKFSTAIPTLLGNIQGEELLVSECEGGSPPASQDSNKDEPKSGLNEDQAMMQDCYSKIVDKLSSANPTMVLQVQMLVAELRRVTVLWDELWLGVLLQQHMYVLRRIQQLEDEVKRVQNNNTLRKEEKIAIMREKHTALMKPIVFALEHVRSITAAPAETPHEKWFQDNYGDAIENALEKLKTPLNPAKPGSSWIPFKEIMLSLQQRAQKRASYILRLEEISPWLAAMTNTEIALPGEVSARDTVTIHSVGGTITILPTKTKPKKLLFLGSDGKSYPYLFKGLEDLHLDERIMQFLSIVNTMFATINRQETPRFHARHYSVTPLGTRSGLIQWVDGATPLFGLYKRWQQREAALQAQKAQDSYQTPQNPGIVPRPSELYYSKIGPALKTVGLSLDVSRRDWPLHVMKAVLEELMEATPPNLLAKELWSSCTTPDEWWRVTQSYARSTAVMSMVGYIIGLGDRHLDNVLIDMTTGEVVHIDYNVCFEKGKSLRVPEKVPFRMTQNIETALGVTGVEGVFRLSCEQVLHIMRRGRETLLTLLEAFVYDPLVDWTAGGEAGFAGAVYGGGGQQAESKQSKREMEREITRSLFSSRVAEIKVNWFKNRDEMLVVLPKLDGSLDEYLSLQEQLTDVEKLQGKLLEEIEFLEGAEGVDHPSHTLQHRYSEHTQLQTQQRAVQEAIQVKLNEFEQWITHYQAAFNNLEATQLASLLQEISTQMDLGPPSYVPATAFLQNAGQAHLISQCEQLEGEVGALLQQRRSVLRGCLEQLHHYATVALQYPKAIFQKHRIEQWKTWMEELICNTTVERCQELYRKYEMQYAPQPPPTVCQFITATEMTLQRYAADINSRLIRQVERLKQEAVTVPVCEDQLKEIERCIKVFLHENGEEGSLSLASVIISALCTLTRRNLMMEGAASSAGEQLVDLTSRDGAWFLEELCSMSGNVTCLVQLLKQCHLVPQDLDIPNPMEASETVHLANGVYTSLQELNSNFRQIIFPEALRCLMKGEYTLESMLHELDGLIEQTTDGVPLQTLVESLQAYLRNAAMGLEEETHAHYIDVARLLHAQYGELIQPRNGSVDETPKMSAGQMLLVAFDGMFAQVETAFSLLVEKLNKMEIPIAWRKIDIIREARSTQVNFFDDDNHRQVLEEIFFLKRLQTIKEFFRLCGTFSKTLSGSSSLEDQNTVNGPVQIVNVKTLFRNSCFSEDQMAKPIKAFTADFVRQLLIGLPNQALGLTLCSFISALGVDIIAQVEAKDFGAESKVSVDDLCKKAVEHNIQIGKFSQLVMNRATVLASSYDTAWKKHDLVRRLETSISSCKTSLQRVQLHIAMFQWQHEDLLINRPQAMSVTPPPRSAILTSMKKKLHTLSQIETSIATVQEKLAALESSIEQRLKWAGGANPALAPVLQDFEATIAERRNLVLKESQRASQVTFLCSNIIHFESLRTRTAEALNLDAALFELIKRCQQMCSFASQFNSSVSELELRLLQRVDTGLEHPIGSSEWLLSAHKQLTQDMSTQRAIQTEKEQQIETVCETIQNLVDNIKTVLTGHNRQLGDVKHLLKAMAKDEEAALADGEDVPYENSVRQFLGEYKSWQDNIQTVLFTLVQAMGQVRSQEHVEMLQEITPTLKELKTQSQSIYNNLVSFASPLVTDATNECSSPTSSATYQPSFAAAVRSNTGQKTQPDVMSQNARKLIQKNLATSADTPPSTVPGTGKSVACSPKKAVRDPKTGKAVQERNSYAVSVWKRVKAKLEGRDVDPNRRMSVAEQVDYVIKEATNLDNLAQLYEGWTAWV

CO[C@H]1CC[C@H](N2C(=O)CNc3ncc(-c4ccc(C(C)(C)O)nc4)nc32)CC1 [Compound 2, 7-(6-(2-hydroxypropan-2-yl)pyridin-3-yl)-1-((trans)-4-methoxycyclohexyl)-3,4-dihydropyrazino[2,3-b]pyrazin-2(1H)-one]
markers of TORK inhibition (pS6 and p4EBP1) (TORK [1]): binds to TORK (pS6 and p4EBP1) only; also recorded: reduced | binding to TORK (% inhibition of probe binding) (TORK [2]): only binds TORK | marker of SMG1 inhibition (pATM/ATR substrate, pUPF1) (SMG1 [3]): binds to TORK (pS6 and p4EBP1) only; also recorded: not by Compound 2 | binding to SMG1 (% inhibition of probe binding) (SMG1 [4]): only binds TORK | binding to DNA-PK (% inhibition of probe binding) (DNA-PK): only binds TORK
